Measured values from US20230348447A1, “OXAZOLIDINONE COMPOUNDS, LIPOSOME COMPOSITIONS COMPRISING OXAZOLIDINONE COMPOUNDS AND METHOD OF USE THEREOF” (priority 2020, published 2023).
In brackets after ≈: the same amount, converted by molar mass. Like-named read-outs stand apart in the source and are kept apart here.

Assays:
[1] = test system: M. Tuberculosis Erdman or H37Rv vs VERO or HepG2 cells; test: Selectivity Index (mammalian cell IC50 / bacterial MIC); set-up: species or system Mycobacterium tuberculosis
MRSA ATCC 43300 = test: MIC against methicillin resistant Staphylococcus aureus (MRSA); settings: read-out: MRSA MIC, ATCC 43300
M.tb Erdman = test: Broth microdilution MIC with Alamar blue endpoint (MABA) / OD600; type: cell-based, Mycobacterium tuberculosis
M.tb H37Rv = test: as above; type: cell-based, Mycobacterium tuberculosis
[2] = test system: mitochondrial protein synthesis (COX-1/SDH-A ratio) in H9C2 rat heart myoblast cells; test: Mitochondrial protein synthesis inhibition (MitoBiogenesis in-cell ELISA, COX-1/SDH-A); type: cell-based; settings: 120 h, five days, read-out: MPS IC50
[3] = test system: human hepatocyte/liver (HepG2; ATCC #HB8065) cells; test: In vitro cytotoxicity (PrestoBlue cell viability), HepG2; type: cell-based
[4] = test system: African green monkey kidney (Vero; ATCC # CCL81) cells; test: In vitro cytotoxicity (PrestoBlue cell viability), Vero; type: cell-based
MRSA 880 NR-49120 = test: MIC against methicillin resistant Staphylococcus aureus (MRSA); settings: read-out: MRSA MIC, 880 NR-49120
MRSA ATCC BAA-1556 = test: as above
[5] = Liposome loading / encapsulation efficiency (General protocol); settings: for Maximum encapsulated drug payload: 0.5 M AS; for maximum drug load: no buffer
[6] = Aqueous solubility (visually clear solutions); type: physicochemical; settings: aqueous, 1 N HCl and/or water added
Experimental: Working stocks of the compounds were prepared as follows: to an aliquot of a compound (free base) in a powder form 1-1.5 equivalents of HCl in the form of 1 N aqueous solution was added, and the mixture was vortexed until homogeneity. To the resulting cake or syrup, water was added typically to the final 10 mg/ml, and complete dissolution was observed. In some instances, 0.95 equivalents of HCl were added to the free base form of the drug, and 20 mg/ml stock solution was prepared.
Aqueous solubility of the compounds of the present disclosure is illustrated by the following observations of obtaining visually clear solutions: […]

[7] = test system: MRSA strain MW-2 (USA 400); test: Rabbit left-sided aortic valve endocarditis model of MRSA; type: in vivo, Staphylococcus aureus (in New Zealand white rabbits); settings: for Kidneys, MRSA count / Liver, MRSA count / Lungs, MRSA count / Spleen, MRSA count / Vegetations, MRSA count: rabbits, DAP 2 mg/kg daily for four days alone
[8] = Mycobacterium tuberculosis, ERDMAN, read-out: Mycobacterium tuberculosis MIC, Erdman
[9] = Mycobacterium tuberculosis, H37RV, read-out: MIC (H37Rv)
[10] = Mycobacterium tuberculosis, H37RV, read-out: Mycobacterium tuberculosis MIC, H37Rv
[11] = Homo sapiens, HepG2, 72 h, read-out: Cell viability IC50, HepG2
[12] = Chlorocebus sabaeus, Vero, 72 h, read-out: Cell viability IC50, VERO
[13] = read-out: MRSA MIC, ATCC BAA-1556
[14] = 1 N TEA-SOS, DL0 750-1500 g/mol PhL
[15] = Mycobacterium tuberculosis, ERDMAN; read-out: Mycobacterium tuberculosis MIC, Erdman
[16] = Mycobacterium tuberculosis, H37RV; as determined in Example 2; read-out: MIC (H37Rv)
[17] = Mycobacterium tuberculosis, H37RV; read-out: Mycobacterium tuberculosis MIC, H37Rv
[18] = Homo sapiens, HepG2, 72 h; read-out: Cell viability IC50, HepG2
[19] = Chlorocebus sabaeus, Vero, 72 h; read-out: Cell viability IC50, VERO

Compound	Selectivity Index (SI) Erd/HepG2 [1]	Selectivity Index (SI) Erd/VERO [1]	MIC (MRSA ATCC 43300) [µg/mL]	MIC (M.tb Erdman; [8]) [µg/mL]	MIC (M.tb H37Rv; [10]) [µg/mL]	IC50 [2] [µg/mL]	IC50 [3, 11] [µg/mL]	IC50 [4, 12] [µg/mL]	MIC (MRSA 880 NR-49120) [µg/mL]	MIC (MRSA ATCC BAA-1556; read-out: MRSA MIC) [µg/mL]	MIC (MRSA ATCC BAA-1556; [13]) [µg/mL]	MIC (M.tb Erdman; [15]) [µg/mL]	MIC (M.tb H37Rv; [16]) [µg/mL]	MIC (M.tb H37Rv; [17]) [µg/mL]	IC50 [3, 18] [µg/mL]	IC50 [4, 19] [µg/mL]	also measured
Cl.Cn1nnc(-c2ccc(-c3ccc(N4C[C@H](CN)OC4=O)cc3F)cn2)n1 [AKG-3]	169.6	142.4	50	0.125	0.06	0.115	21.2	17.8	50	> 50	50						MIC (M.tb H37Rv; [9]): 0.06 µg/mL; Maximum encapsulated drug payload ([5]; 0.5 mol% PEG): 590 g/mol PhL; Maximum encapsulated drug payload ([5]; 5 mol% PEG): 600-606 g/mol PhL; loading efficiency at or near the maximum drug load [5, 14]: at least 97.6%; maximum drug load [5, 14]: 900-930 g/mol PhL; Drug loading efficiency ([5]; PEG-DSG 0.5 mol%, 1 N TEA-SOS, DL0 500 g/mol PhL): 100.8; Drug loading efficiency ([5]; PEG-DSG 0.5 mol%, […] AS, DL0 250 g/mol PhL): 100.4; Drug loading efficiency ([5]; PEG-DSG 0.5 mol%, […] AS, DL0 500 g/mol PhL): 80.3; Drug loading efficiency ([5]; PEG-DSG 5 mol%, 1 N TEA-SOS, DL0 500 g/mol PhL): 107.4
CN(C)CCn1nnc(-c2ccc(-c3ccc(N4C[C@H](CO)OC4=O)cc3F)cn2)n1 [AKG-16]			1.85 (≈ 4.33 µM)			0.244 (≈ 0.571 µM)			1.85 (≈ 4.33 µM)		1.85 (≈ 4.33 µM)	0.25 (≈ 0.585 µM)	0.25 (≈ 0.585 µM)	0.25 (≈ 0.585 µM)	91 (≈ 213 µM)	97 (≈ 227 µM)	Concentration % (w/w) of free base (visually clear solution) [6]: 30.0 % (w/w); Maximum encapsulated drug payload ([5]; 0.5 mol% PEG): 668-675 g/mol PhL; Maximum encapsulated drug payload ([5]; 5 mol% PEG): 614-619 g/mol PhL; maximum drug load [5, 14]: 938-951 g/mol PhL
Cl.NCCn1nnnc1-c1ccc(-c2ccc(N3C[C@H](CO)OC3=O)cc2F)cn1 [AKG-22]	17.2	57.7	16.7			1.18			5.55		1.85 to 5.55	1	0.5	0.5	17.2	57.7	
Cl.Cl.NCCn1nnc(-c2ccc(-c3ccc(N4C[C@H](CN)OC4=O)cc3F)cn2)n1 [AKG-29]	297.6	439.6	> 50	0.25	0.125	4.11	74.4	110	50	> 50	50						MIC (M.tb H37Rv; [9]): 0.125 µg/mL
CN(C)CCCn1nnc(-c2ccc(-c3ccc(N4C[C@H](CN)OC4=O)cc3F)cn2)n1 [AKG-30]	151.2	884.0	> 50	0.125 (≈ 0.284 µM)	0.125 (≈ 0.284 µM)		18.9 (≈ 42.9 µM)	110 (≈ 251 µM)	> 50	> 50	> 50						
CCN(CC)CCn1nnc(-c2ccc(-c3ccc(N4C[C@H](CNC(C)=O)OC4=O)cc3F)cn2)n1 [AKG-39]	140.0	402.0	1.85 (≈ 3.73 µM)			0.06 (≈ 0.121 µM)			1.85 (≈ 3.73 µM)		1.85 (≈ 3.73 µM)	0.5 (≈ 1.01 µM)	0.5 (≈ 1.01 µM)	0.5 (≈ 1.01 µM)	70 (≈ 141 µM)	201 (≈ 405 µM)	MIC (M.tb Erdman; Mycobacterium tuberculosis; M. tuberculosis Erdman / H37Rv, strains not separated; read-out: MIC): 0.5 µg/mL (≈ 1.01 µM)
CCN(CC)CCCn1nnc(-c2ccc(-c3ccc(N4C[C@H](CNC(C)=O)OC4=O)cc3F)cn2)n1 [AKG-40]	113.0	>250.0	5.55 (≈ 10.9 µM)			0.064 (≈ 0.125 µM)			1.85 (≈ 3.62 µM)		1.85 (≈ 3.62 µM)	1 (≈ 1.96 µM)	0.5 (≈ 0.979 µM)	0.5 (≈ 0.979 µM)	113 (≈ 221 µM)	> 250	Mycobacterium tuberculosis MIC, Erdman (M.tb Erdman): 1 to 2 µg/mL; Mycobacterium tuberculosis MIC, H37Rv (M.tb H37Rv): 0.5 µg/mL
CCCCCCCCCC(=O)N[C@@H](Cc1c[nH]c2ccccc12)C(=O)N[C@H](CC(N)=O)C(=O)N[C@@H](CC(=O)O)C(=O)N[C@@H]1C(=O)NCC(=O)N[C@@H](CCCN)C(=O)N[C@@H](CC(=O)O)C(=O)N[C@H](C)C(=O)N[C@@H](CC(=O)O)C(=O)NCC(=O)N[C@H](CO)C(=O)N[C@@H]([C@H](C)CC(=O)O)C(=O)N[C@@H](CC(=O)c2ccccc2N)C(=O)O[C@@H]1C [Daptomycin]																	efficacy on day 6 post inoculation ([7]; DAP 2 mg/kg daily x4 alone or plus a single dose of Ls-AKG38 40 mg/kg): no significant efficacy; Kidneys, MRSA count ([7]; (relapse)): 8.11 ± 0.49 log10 cfu/gm of tissue; Liver, MRSA count ([7]; (relapse)): 7.65 ± 0.26 log10 cfu/gm of tissue; Lungs, MRSA count ([7]; (relapse)): 8.00 ± 0.66 log10 cfu/gm of tissue; Spleen, MRSA count ([7]; (relapse)): 7.91 ± 0.54 log10 cfu/gm of tissue; Vegetations, MRSA count ([7]; (relapse)): 9.18 ± 0.22 log10 cfu/gm of tissue; Kidneys, MRSA count ([7]; day 6): 6.90 ± 0.61 log10 cfu/gm of tissue; Liver, MRSA count ([7]; day 6): 6.77 ± 0.90 log10 cfu/gm of tissue; Lungs, MRSA count ([7]; day 6): 6.37 ± 0.64 log10 cfu/gm of tissue; Spleen, MRSA count ([7]; day 6): 7.43 ± 0.38 log10 cfu/gm of tissue; Vegetations, MRSA count ([7]; day 6): 8.13 ± 0.17 log10 cfu/gm of tissue
